Data reported in patent US8124764B2, “Fused heterocyclyc inhibitor compounds” (Gilead Sciences, Inc., priority 2008, dated 2012).

What was measured:
HDAC 1 = HDAC 1 (Homo sapiens, UniProt Q13547); experiment: HDAC 1 inhibition assay with about 3 hours enzyme/compound preincubation (fluorophore/quencher peptide substrate); type: biochemical; settings: 3-hour preincubation of enzyme with compound; read-out: HDAC 1 inhibitory activity (IC50 [μM]) (3-hour preincubation)
Method: HDAC inhibitory activity of the compound of Example 1 was measured by two types of assays in which HDAC 1 was used as a target molecule. The first assay was carried out without preincubation after addition of the enzyme. The test compound was suspended in and titrated in dmso. It was then spotted into a 384-well test plate. The enzyme, HDAC 1, was diluted in assay buffer containing 25 mM Tris-HCl (pH 8.0), 137 mM NaCl, 2.7 mM KCl, and 0.01% Tween-20 and added to the pre-spotted compound. The peptide substrate containing a fluorophore/quencher pair was diluted in the same assay buffer and added to the compound/enzyme mix initiating the reaction. The reaction incubated at room temperature for about 45 minutes. A concentrated developer solution was diluted in the assay buffer, and added to the reaction. The reaction was incubated at room temperature for about 15 minutes and relative fluorescence was read on an instrument reader.
The second assay is similar to the first assay described above, except that preincubation is carried out for about 3 hours after the enzyme is introduced. The test compound was suspended in, and titrated in DMSO. It was then spotted into a 384-well test plate. The enzyme, HDAC 1, was diluted in the same assay buffer as used in the previous assay and added to the pre-spotted compound. The enzyme/compound mix was incubated at room temperature for about 3 hours. The peptide substrate containing a fluorophore/quencher pair was diluted in the assay buffer and added to the compound/enzyme mix initiating the reaction. The reaction incubated at room temperature for 45 minutes. A concentrated developer solution was diluted in the assay buffer, and added to the reaction. The reaction was incubated at room temperature for about 15 minutes and relative fluorescence was read on an instrument reader.

CDK2 = CDK2 (Homo sapiens, UniProt P24941); experiment: CDK2 inhibition; type: biochemical

Sequence of HDAC 1 (Q13547 whole entry, species assumed): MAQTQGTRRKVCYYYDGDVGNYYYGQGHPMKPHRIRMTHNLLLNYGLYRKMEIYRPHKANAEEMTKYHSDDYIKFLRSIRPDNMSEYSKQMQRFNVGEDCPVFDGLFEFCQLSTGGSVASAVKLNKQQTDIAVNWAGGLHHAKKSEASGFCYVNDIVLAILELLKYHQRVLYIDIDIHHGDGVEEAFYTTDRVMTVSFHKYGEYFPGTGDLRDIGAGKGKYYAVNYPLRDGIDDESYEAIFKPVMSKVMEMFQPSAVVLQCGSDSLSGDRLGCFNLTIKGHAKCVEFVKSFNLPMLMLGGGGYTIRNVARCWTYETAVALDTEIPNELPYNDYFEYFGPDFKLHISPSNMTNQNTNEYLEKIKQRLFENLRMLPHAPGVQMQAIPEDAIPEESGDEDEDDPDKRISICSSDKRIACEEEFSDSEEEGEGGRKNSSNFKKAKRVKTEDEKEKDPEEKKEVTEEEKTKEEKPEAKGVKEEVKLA

| Compound | IC50 (HDAC 1) | IC50 (CDK2) |
| --- | --- | --- |
| Cc1nc2cc(C#N)ccn2c1-c1ccnc(Nc2ccc(C(=O)Nc3ccccc3N)cc2)n1 [Example 24, N-(2-Amino-phenyl)-4-[4-(7-cyano-2-methyl-imidazo[1,2-a]pyridin-3-yl)-pyrimidin-2-ylamino]-benzamide] | 0.18 µM | 0.5 µM |
| Cc1nc2cc(C(=O)NCCN3CCOCC3)ccn2c1-c1ccnc(Nc2ccc(C(=O)Nc3ccccc3N)cc2)n1 [Example 25, 3-(2-(4-(2-aminophenylcarbamoyl)phenylamino)pyrimidin-4-yl)-2-methyl-N-(2-morpholinoethyl)imidazo[1,2-a]pyridine-7-carboxamide] | 0.128 µM | 1.03 µM |
| COC(=O)c1ccn2c(-c3ccnc(Nc4ccc(C(=O)Nc5ccccc5N)cc4)n3)c(C)nc2c1 [Example 26, Methyl 3-(2-(4-(2-aminophenylcarbamoyl)phenylamino)pyrimidin-4-yl)-2-methylimidazo[1,2-a]pyridine-7-carboxylate] | > 10 µM | 0.53 µM |
| Cc1nc2cc(C(=O)N3CCN(C)CC3)ccn2c1-c1ccnc(Nc2ccc(C(=O)Nc3ccccc3N)cc2)n1 [Example 27, N-(2-Amino-phenyl)-4-{4-[2-methyl-7-(4-methyl-piperazine-1-carbonyl)-imidazo[1,2-a]pyridin-3-yl]-pyrimidin-2-ylamino}-benzamide] | 0.374 µM | 4.64 µM |
| Cc1nc2cc(C(=O)O)ccn2c1-c1ccnc(Nc2ccc(C(=O)Nc3ccccc3N)cc2)n1 [Example 28, 3-{2-[4-(2-Amino-phenylcarbamoyl)-phenylamino]-pyrimidin-4-yl}-2-methyl-imidazo[1,2-a]pyridine-7-carboxylic acid] | 0.621 µM | 2.53 µM |
| Cc1nc2cc(OCCN3CCOCC3)ccn2c1-c1ccnc(Nc2ccc(C(=O)Nc3ccccc3N)cc2)n1 [Example 29, N-(2-aminophenyl)-4-(4-(2-methyl-7-(2-morpholinoethoxy)imidazo[1,2-a]pyridin-3-yl)pyrimidin-2-ylamino)benzamide] | 0.315 µM | 2.13 µM |
| Cc1nc2cc(OCCN(C)C)ccn2c1-c1ccnc(Nc2ccc(C(=O)Nc3ccccc3N)cc2)n1 [Example 30, N-(2-Amino-phenyl)-4-{4-[7-(2-dimethylamino-ethoxy)-2-methyl-imidazo[1,2-a]pyridin-3-yl]-pyrimidin-2-ylamino}-benzamide] | 0.118 µM | 1.07 µM |
| COCCOc1ccn2c(-c3ccnc(Nc4ccc(C(=O)Nc5ccccc5N)cc4)n3)c(C)nc2c1 [Example 31, N-(2-Amino-phenyl)-4-{4-[7-(2-methoxy-ethoxy)-2-methyl-imidazo[1,2-a]pyridin-3-yl]-pyrimidin-2-ylamino}-benzamide] | 0.243 µM | 0.4 µM |
| Cc1nc2cc(NCCN(C)C)ccn2c1-c1ccnc(Nc2ccc(C(=O)Nc3ccccc3N)cc2)n1 [Example 32, N-(2-Amino-phenyl)-4-{4-[7-(2-dimethylamino-ethylamino)-2-methyl-imidazo[1,2-a]pyridin-3-yl]-pyrimidin-2-ylamino}-benzamide] | 0.141 µM | 2.58 µM |
| Cc1nc2ccccn2c1-c1ccnc(Nc2ccc(C(=O)NO)cc2F)n1 [Example 33, 3-Fluoro-N-hydroxy-4-[4-(2-methyl-imidazo[1,2-a]pyridin-3-yl)-pyrimidin-2-ylamino]-benzamide] | 0.126 µM | 0.22 µM |
| Cc1nc2ccccn2c1-c1ccnc(Nc2ccc(C(=O)Nc3ccccc3N)cc2F)n1 [Example 34, N-(2-Amino-phenyl)-3-fluoro-4-[4-(2-methyl-imidazo[1,2-a]pyridin-3-yl)-pyrimidin-2-ylamino]-benzamide] | 1.56 µM | 0.86 µM |
| Cc1nc2ccccn2c1-c1ccnc(Nc2ccc(C(=O)NO)c(F)c2)n1 [Example 35, 2-Fluoro-N-hydroxy-4-[4-(2-methyl-imidazo[1,2-a]pyridin-3-yl)-pyrimidin-2-ylamino]-benzamide] | 0.128 µM | 0.06 µM |
| Cc1nc2ccccn2c1-c1ccnc(Nc2ccc(C(=O)Nc3ccccc3N)c(F)c2)n1 [Example 36, N-(2-Amino-phenyl)-2-fluoro-4-[4-(2-methyl-imidazo[1,2-a]pyridin-3-yl)-pyrimidin-2-ylamino]-benzamide] | > 10 µM | 0.11 µM |
| Cc1nc2ccc(C(=O)NCCN(C)C)cn2c1-c1ccnc(Nc2ccc(C(=O)Nc3ccccc3N)cc2)n1 [Example 37, 3-(2-(4-(2-aminophenylcarbamoyl)phenylamino)pyrimidin-4-yl)-N-(2-(dimethylamino)ethyl)-2-methylimidazo[1,2-a]pyridine-6-carboxamide] | 0.132 µM | 1.88 µM |
| COCCNC(=O)c1ccc2nc(C)c(-c3ccnc(Nc4ccc(C(=O)Nc5ccccc5N)cc4)n3)n2c1 [Example 38, 3-(2-(4-(2-aminophenylcarbamoyl)phenylamino)pyrimidin-4-yl)-N-(2-methoxyethyl)-2-methylimidazo[1,2-a]pyridine-6-carboxamide] | 0.312 µM | 2.74 µM |
| Cc1nc2ccc(C(=O)N3CCN(C)CC3)cn2c1-c1ccnc(Nc2ccc(C(=O)Nc3ccccc3N)cc2)n1 [Example 39, N-(2-Amino-phenyl)-4-{4-[2-methyl-6-(4-methyl-piperazine-1-carbonyl)-imidazo[1,2-a]pyridin-3-yl]-pyrimidin-2-ylamino}-benzamide] | 0.563 µM | 7.94 µM |
| Cc1nc2ccc(C(=O)NCCN3CCOCC3)cn2c1-c1ccnc(Nc2ccc(C(=O)Nc3ccccc3N)cc2)n1 [Example 40, 3-(2-(4-(2-aminophenylcarbamoyl)phenylamino)pyrimidin-4-yl)-2-methyl-N-(2-morpholinoethyl)imidazo[1,2-a]pyridine-6-carboxamide] | 0.347 µM | 7.1 µM |
| COCCOc1ccc2nc(C)c(-c3ccnc(Nc4ccc(C(=O)Nc5ccccc5N)cc4)n3)n2c1 [Example 41, N-(2-Amino-phenyl)-4-{4-[6-(2-methoxy-ethoxy)-2-methyl-imidazo[1,2-a]pyridin-3-yl]-pyrimidin-2-ylamino}-benzamide] | 0.877 µM | 4.34 µM |
| COc1ccc2nc(C)c(-c3ccnc(Nc4ccc(C(=O)Nc5ccccc5N)cc4)n3)n2c1 [Example 42, N-(2-Amino-phenyl)-4-[4-(6-methoxy-2-methyl-imidazo[1,2-a]pyridin-3-yl)-pyrimidin-2-ylamino]-benzamide] | 0.388 µM | 0.29 µM |
| COc1ccc2nc(C)c(-c3ccnc(Nc4ccc(C(=O)NO)cc4)n3)n2c1 [Example 43, N-Hydroxy-4-[4-(6-methoxy-2-methyl-imidazo[1,2-a]pyridin-3-yl)-pyrimidin-2-ylamino]-benzamide] | 0.14 µM | 0.08 µM |
| Cc1nc2c(F)cccn2c1-c1ccnc(Nc2ccc(C(=O)NO)cc2)n1 [Example 44, 4-[4-(8-Fluoro-2-methyl-imidazo[1,2-a]pyridin-3-yl)-pyrimidin-2-ylamino]-N-hydroxy-benzamide] | 0.251 µM | 0.09 µM |
| Cc1nc2c(F)cccn2c1-c1ccnc(Nc2ccc(C(=O)Nc3ccccc3N)cc2)n1 [Example 45, N-(2-Amino-phenyl)-4-[4-(8-fluoro-2-methyl-imidazo[1,2-a]pyridin-3-yl)-pyrimidin-2-ylamino]-benzamide] | 0.178 µM | 0.35 µM |
| Cc1nc2cc(CN(C)C)ccn2c1-c1ccnc(Nc2ccc(C(=O)Nc3ccccc3N)cc2)n1 [Example 46, N-(2-Amino-phenyl)-4-[4-(7-dimethylaminomethyl-2-methyl-imidazo[1,2-a]pyridin-3-yl)-pyrimidin-2-ylamino]-benzamide] | 0.13 µM | 1.61 µM |
| Cc1nc2ccc(Br)cn2c1-c1ccnc(Nc2ccc(C(=O)Nc3ccccc3N)cc2)n1 [Example 47, N-(2-Amino-phenyl)-4-[4-(6-bromo-2-methyl-imidazo[1,2-a]pyridin-3-yl)-pyrimidin-2-ylamino]-benzamide] | > 10 µM | 0.14 µM |
| COc1ccn2c(-c3ccnc(Nc4ccc(C(=O)Nc5ccccc5N)cc4)n3)c(C(F)(F)F)nc2c1 [Example 48, N-(2-Amino-phenyl)-4-[4-(7-methoxy-2-trifluoromethyl-imidazo[1,2-a]pyridin-3-yl)-pyrimidin-2-ylamino]-benzamide] | 0.06 µM | 0.14 µM |
| COc1ccn2c(-c3ccnc(Nc4ccc(C(=O)NO)cc4)n3)c(C(F)(F)F)nc2c1 [Example 49, N-Hydroxy-4-[4-(7-methoxy-2-trifluoromethyl-imidazo[1,2-a]pyridin-3-yl)-pyrimidin-2-ylamino]-benzamide] | 0.199 µM | 0.06 µM |
| Nc1ccccc1NC(=O)c1ccc(Nc2ncc(F)c(-c3cnc4ccccn34)n2)cc1 [Example 50, N-(2-Amino-phenyl)-4-(5-fluoro-4-imidazo[1,2-a]pyridin-3-yl-pyrimidin-2-ylamino)-benzamide] | > 20 µM | 0.06 µM |
| O=C(NO)c1ccc(Nc2ncc(F)c(-c3cnc4ccccn34)n2)cc1 [Example 51, 4-(5-Fluoro-4-imidazo[1,2-a]pyridin-3-yl-pyrimidin-2-ylamino)-N-hydroxy-benzamide] | 0.211 µM | 0.014 µM |
